# Measured values reported in patent US4742062A, “Benzylpiperazine compound and pharmaceutical composition as hypolipidemic agent” (Kanebo, Ltd., priority 1985, dated 1988).
# Entries after “also recorded” stand apart in the source; their conditions may differ.
# Tests used:
# [1] = test system: mice fed with normal feed (serum cholesterol); assay: Blood cholesterol lowering activity in mice fed with normal feed (Experiment 2); type: in vivo, ddY male mice; conditions: for Serum cholesterol level, mean ± S.E. / Percentage change of serum cholesterol: 7 days; for Percentage change of serum cholesterol: vs untreated group
# Text: (2) Test method: It was done by a method similar to that of H. B. Right et al. (cf. H. B. Right et al., J. Med. Chem., Vol. 7, 113-115, 1964). ddY male mice (weighing 21-23 g, one group: 10 mice) were fed with a mixture of the test compound with powdery feed CE-2 (manufactured by CLEA JAPAN INC.) for 7 days. When the mice fed with the feed mixed with the test compound (test compound-administering group) and the mice fed with the feed mixed with no test compound (no test compound-administering group) were compared as to the feed uptake amount and body weight, there was observed no difference between two groups. After feeding for 7 days, under light anesthesia with ether, the femoral artery and vein were cut and blood was collected therefrom. The blood was centrifuged at 3,000 r.p.m. for 10 minutes to collect serum. The serum cholesterol was measured in the same manner as described in Experiment 1. From the data thus obtained, a mean value (X) of the serum cholesterol level in the no test compound-administering group and a mean value (Y) of the serum cholesterol level in the test compound-administering group were calculated, and the significant difference between them was tested (t-test). From the resulting data, the percentage change of serum cholesterol in the test compound-administering group was calculated by the following equation. [formula]
# [2] = test system: hypercholesterolemic mice (plasma cholesterol); assay: Blood cholesterol lowering activity in hypercholesterolemic mice (Experiment 3); type: in vivo, ddY male mice; conditions: for Plasma cholesterol level, mean ± S.E. / Percentage change of plasma cholesterol: orally, three times; for Percentage change of plasma cholesterol: vs untreated group
# Text: (2) Test method: It was done by a method similar to that described in H. Ozawa, Screening of Pharmaceutical Activities for Development of New Drugs - Recent Movement and Practice, Vol. 1, 84-86, 1984 issued by […] Shoin (Tokyo). ddY male mice (weighing 10 - 12 g, one group: 10 mice) were fed with hypercholesterol feed [prepared by mixing CE-2 Feed (manufactured by CLEA JAPAN INC.) with cholesterol 1 w/w %, cholic acid 0.5 w/w % and sucrose 10 w/w %]. After 7 days from the starting of feeding with the hypercholesterol feed, and thereafter 6 hours and further 24 hours (totally three times), a suspension of the test compound in 3 w/v % aqueous gum arabic solution was orally administered. 3 hours after the final administration of the test compound, blood was collected from orbital vessel with hematocrit capillary (manufactured by TERUMO Corporation, treated with heparin). The blood was centrifuged at 10,000 r.p.m. for 2 minutes to collect blood plasma. The plasma cholesterol was measured in the same manner as described in Experiment 1. From the data thus obtained, a mean value (X) of the plasma cholesterol level in the no test compound-administering group and a mean value (Y) of the plasma cholesterol level in the test compound-administering group were calculated, and the significant difference between them was tested (t-test). From the resulting data, the percentage change of plasma cholesterol in the test compound-administering group was calculated by the following equation. [formula]
# [3] = Test of acute toxicity (LD50) in mice (Experiment 6); type: in vivo; conditions: mouse, in vivo, po, orally, 7 days observation, Weil method
# Text: (§1) ddY male mice (weighing 20-25 g, one group: 5 mice) were orally administered with a suspension of the test compound in 3 w/v % aqueous gum arabic solution.
# [4] = test system: mice; assay: as above; type: in vivo; conditions: orally, result in words
# Text: as §1
# [5] = test system: mice (liver); assay: Test of hepatic toxicity in mice, weight of liver (Experiment 5); type: in vivo, ddY male mice; conditions: for Weight of liver, mean ± S.E. / Percentage change of weight of liver: 7 days; for Percentage change of weight of liver: vs untreated group
# Text: ddY male mice (weighing 21-23 g, one group: 10 mice) were fed with a mixture of the test compound with powdery feed CE-2 (manufactured by CLEA JAPAN INC.) for 7 days. When the mice fed with the feed mixed with the test compound (test compound-administering group) and the mice fed with the feed mixed with no test compound (no test compound-administering group) were compared as to the feed uptake amount and body weight, there was observed no difference between two groups. After feeding for 7 days, under light anesthesia with ether, the liver was taken out, and the weight thereof was measured.
# (§2) From the data thus obtained, a mean value (X) of the weight of liver in the no test compound-administering group and a mean value (Y) of the weight of liver in the test compound-administering group were calculated, and the significant difference between them was tested (t-test). From the resulting data, the percentage change of weight of liver in the test compound-administering group was calculated by the following equation. [formula]
# [6] = test system: rats (liver); assay: Test of hepatic toxicity in rats, weight of liver (Experiment 4); type: in vivo, Wistar male rats; conditions: for Weight of liver, mean ± S.E. / Percentage change of weight of liver: orally, once a day for 7 days; for Percentage change of weight of liver: vs untreated group
# Protocol: Wistar male rats (weighing 100-130 g, one group: […]) were orally administered with a suspension of the test compound in 3 w/v % aqueous gum arabic solution once a day for 7 days. 24 hours after the final administration of the test compound, under light anesthesia with ether, the liver was taken out and the weight thereof was measured.
# as §2
# [7] = test system: rats fed with normal feed (serum cholesterol); assay: Blood cholesterol lowering activity in rats fed with normal feed (Experiment 1); type: in vivo, Wistar male rats; conditions: for Serum cholesterol level, mean ± S.E. / Percentage change of serum cholesterol: once a day for 7 days; for Percentage change of serum cholesterol: vs untreated group
# Protocol: It was done by a method similar to that of A. V. Ginocchio et al. (cf. A. V. Ginocchio et al., Arzneim.Forsch./Drug Res., Vol. 30, 2032-2034, 1980).
# Wistar male rats (weighing 100-130 g, one group: 6 rats) were administered with a suspension of the test compound in 3 w/v % aqueous gum arabic solution once a day for 7 days. 24 hours after the final administration of the test compound, under light anesthesia with ether, the femoral artery and vein were cut and blood was collected therefrom. The blood was centrifuged at 3,000 r.p.m. for 10 minutes to collect serum. The serum cholesterol was measured by an enzymatic method using an agent for measuring total cholesterol (Determiner® TC "5", manufactured by Kyowa Medex Co., Ltd.) (cf. Charles C. Allain et al., Clin. Chem., Vol. 20, 470-475, 1974).
# From the data thus obtained, a mean value (X) of the serum cholesterol level in the group to which no test compound was administered and a mean value (Y) of the serum cholesterol level in the group to which the test compound was administered were calculated, and the significant difference between them was tested (t-test). From the resulting data, the percentage change of serum cholesterol in the test compound-administering group was calculated by the following equation. [formula]
# [8] = test system: cholesterol; conditions: clinical use; J. K. Reddy et al., Nature, Vol. 283, 397-398, 1980; cited from earlier work
# [9] = conc. of test compd. in feeds 0.0125%
# [10] = conc. of test compd. in feeds 0.025%, *** p < 0.001
# [11] = conc. of test compd. in feeds 0.025%
# [12] = conc. of test compd. in feeds 0.05%, *** p < 0.001
# [13] = conc. of test compd. in feeds 0.05%
# [14] = conc. of test compd. in feeds 0.1%, *** p < 0.001
# [15] = conc. of test compd. in feeds 0.1%
# [16] = normal feed, result in words, dihydrochloride
# [17] = dose per once 50 mg/kg, ** p < 0.01
# [18] = dose per once 100 mg/kg, *** p < 0.001 (compound of this invention)
# [19] = result in words, dihydrochloride
# [20] = conc. of test compd. in feeds 0.05%, ** p < 0.01 (reference compound)
# [21] = conc. of test compd. in feeds 0.1%, * p < 0.05 (reference compound)
structure (smiles),measurement,setting,value
"Cl.Cl.Clc1ccc(CN2CCN(CC=Cc3ccc(Cl)cc3Cl)CC2)cc1 [Compound of this invention, 1-(4-Chlorobenzyl)-4-(2,4-dichlorocinnamyl)-piperazine dihydrochloride]","Serum cholesterol level, mean ± S.E.","[1]; conc. of test compd. in feeds 0.0125%, * p < 0.05",130.7 ± 6.5 mg/dL
same,Percentage change of serum cholesterol,[1]; [9],-13.0%
same,"Serum cholesterol level, mean ± S.E.",[1]; [10],121.0 ± 3.7 mg/dL
same,Percentage change of serum cholesterol,[1]; [11],-19.4%
same,"Serum cholesterol level, mean ± S.E.",[1]; [12],62.9 ± 6.4 mg/dL
same,Percentage change of serum cholesterol,[1]; [13],-58.1%
same,"Serum cholesterol level, mean ± S.E.",[1]; [14],31.7 ± 3.7 mg/dL
same,Percentage change of serum cholesterol,[1]; [15],-78.9%
same,serum cholesterol lowering activity in comparison with probucol,[1]; [16],more potent serum cholesterol lowering activity in comparison with the known probucol; also recorded: higher activities than those of probucol in all experiments
same,"Plasma cholesterol level, mean ± S.E.","[2]; dose per once 25 mg/kg, ** p < 0.01",313.1 ± 26.0 mg/dL
same,Percentage change of plasma cholesterol,[2]; dose per once 25 mg/kg,-29.8%
same,"Plasma cholesterol level, mean ± S.E.",[2]; [17],314.5 ± 16.3 mg/dL
same,Percentage change of plasma cholesterol,[2]; dose per once 50 mg/kg,-29.5%
same,"Plasma cholesterol level, mean ± S.E.",[2]; [18],256.0 ± 19.4 mg/dL
same,Percentage change of plasma cholesterol,[2]; dose per once 100 mg/kg,-42.6%
same,plasma cholesterol lowering activity in comparison with probucol,[2]; [19],more potent plasma cholesterol lowering activity in comparison with the known probucol; also recorded: higher activities than those of probucol in all experiments
same,LD50 at 168 h,[3],996 mg/kg
same,acute toxicity,[4],low acute toxicity
same,"Weight of liver, mean ± S.E.",[5]; [9],6.80 ± 0.22 g/100 g of body weight
same,Percentage change of weight of liver,[5]; [9],+7.1%
same,"Weight of liver, mean ± S.E.",[5]; [11],6.63 ± 0.22 g/100 g of body weight
same,Percentage change of weight of liver,[5]; [11],+4.4%
same,"Weight of liver, mean ± S.E.",[5]; [20],6.86 ± 0.30 g/100 g of body weight
same,Percentage change of weight of liver,[5]; [13],+8.0%
same,"Weight of liver, mean ± S.E.",[5]; [21],6.43 ± 0.42 g/100 g of body weight
same,Percentage change of weight of liver,[5]; [15],+1.3%
same,change in the weight of liver (hepatic toxicity),[5]; [19],did not give any significant change in the weight of liver; also recorded: did not give any effect on the weight of liver
same,"Weight of liver, mean ± S.E.",[6]; dose per once 12.5 mg/kg,4.77 ± 0.07 g/100 g of body weight
same,Percentage change of weight of liver,[6]; dose per once 12.5 mg/kg,-2.9%
same,"Weight of liver, mean ± S.E.",[6]; dose per once 25 mg/kg,4.93 ± 0.10 g/100 g of body weight
same,Percentage change of weight of liver,[6]; dose per once 25 mg/kg,+0.4%
same,"Weight of liver, mean ± S.E.",[6]; dose per once 50 mg/kg,5.05 ± 0.08 g/100 g of body weight
same,Percentage change of weight of liver,[6]; dose per once 50 mg/kg,+2.9%
same,"Weight of liver, mean ± S.E.",[6]; dose per once 100 mg/kg,5.17 ± 0.07 g/100 g of body weight
same,Percentage change of weight of liver,[6]; dose per once 100 mg/kg,+5.3%
same,change in the weight of liver (hepatic toxicity),[6]; [19],did not give any significant change in the weight of liver; also recorded: did not give any effect on the weight of liver
same,"Serum cholesterol level, mean ± S.E.",[7]; dose per once 12.5 mg/kg,67.1 ± 2.1 mg/dL
same,Percentage change of serum cholesterol,[7]; dose per once 12.5 mg/kg,-5.4%
same,"Serum cholesterol level, mean ± S.E.","[7]; dose per once 25 mg/kg, *** p < 0.001",62.8 ± 0.8 mg/dL
same,Percentage change of serum cholesterol,[7]; dose per once 25 mg/kg,-11.4%
same,"Serum cholesterol level, mean ± S.E.",[7]; [17],64.4 ± 1.6 mg/dL
same,Percentage change of serum cholesterol,[7]; dose per once 50 mg/kg,-9.2%
same,"Serum cholesterol level, mean ± S.E.",[7]; [18],44.6 ± 2.1 mg/dL
same,Percentage change of serum cholesterol,[7]; dose per once 100 mg/kg,-37.1%
same,serum cholesterol lowering activity in comparison with probucol,[7]; [16],higher activities than those of probucol in all experiments; also recorded: more potent serum cholesterol lowering activity in comparison with the known probucol
"CC(C)(Sc1cc(C(C)(C)C)c(O)c(C(C)(C)C)c1)Sc1cc(C(C)(C)C)c(O)c(C(C)(C)C)c1 [Reference compound, reference compound]","Serum cholesterol level, mean ± S.E.",[1]; [10],121.7 ± 3.1 mg/dL
same,Percentage change of serum cholesterol,[1]; [11],-19.0%
same,"Serum cholesterol level, mean ± S.E.",[1]; [12],104.8 ± 4.4 mg/dL
same,Percentage change of serum cholesterol,[1]; [13],-30.2%
same,"Serum cholesterol level, mean ± S.E.",[1]; [14],84.4 ± 5.4 mg/dL
same,Percentage change of serum cholesterol,[1]; [15],-43.8%
same,"Plasma cholesterol level, mean ± S.E.",[2]; [18],386.2 ± 10.5 mg/dL
same,Percentage change of plasma cholesterol,[2]; dose per once 100 mg/kg,-13.4%
same,LD50 at 168 h,[3],> 5000 mg/kg
same,"Weight of liver, mean ± S.E.",[5]; [11],6.66 ± 0.22 g/100 g of body weight
same,Percentage change of weight of liver,[5]; [11],+4.9%
same,"Weight of liver, mean ± S.E.",[5]; [20],7.11 ± 0.13 g/100 g of body weight
same,Percentage change of weight of liver,[5]; [13],+12.0%
same,"Weight of liver, mean ± S.E.",[5]; [21],7.03 ± 0.09 g/100 g of body weight
same,Percentage change of weight of liver,[5]; [15],+10.7%
same,"Weight of liver, mean ± S.E.",[6]; dose per once 100 mg/kg,4.68 ± 0.09 g/100 g of body weight
same,Percentage change of weight of liver,[6]; dose per once 100 mg/kg,-4.7%
same,"Serum cholesterol level, mean ± S.E.",[7]; [18],70.8 ± 2.0 mg/dL
same,Percentage change of serum cholesterol,[7]; dose per once 100 mg/kg,-0.1%
"CCOC(=O)C(C)(C)Oc1ccc(Cl)cc1 [clofibrate, ethyl p-chlorophenoxyisobutyrate]",side effect,[8],hepatic toxicity
